What was measured:
hD3 receptor = target: T1, hD3 receptor (Homo sapiens, UniProt P35462); assay: Dopamine receptor family binding: D3 ([3H]spiperone); conditions: [3H]spiperone 1 nM; read-out: Binding affinity, IC50 (nM), D3
T1 construct: purchased BioSignal Packard Inc., Montreal, Canada

5-HT1a = target: T2, 5-HT1a (Homo sapiens, UniProt P08908); assay: Radioligand binding, 5-HT receptor family: 5-HT1a ([3H]8-OH-DPAT); conditions: CHO-K1 human recombinant receptor, [3H]8-OH-DPAT 0.5 nM; read-out: Binding affinity, IC50 (nM), 5-HT1a
T2 construct: purchased Euroscreen/BioSignal Packard Inc
T2 sequence (P08908 1-422): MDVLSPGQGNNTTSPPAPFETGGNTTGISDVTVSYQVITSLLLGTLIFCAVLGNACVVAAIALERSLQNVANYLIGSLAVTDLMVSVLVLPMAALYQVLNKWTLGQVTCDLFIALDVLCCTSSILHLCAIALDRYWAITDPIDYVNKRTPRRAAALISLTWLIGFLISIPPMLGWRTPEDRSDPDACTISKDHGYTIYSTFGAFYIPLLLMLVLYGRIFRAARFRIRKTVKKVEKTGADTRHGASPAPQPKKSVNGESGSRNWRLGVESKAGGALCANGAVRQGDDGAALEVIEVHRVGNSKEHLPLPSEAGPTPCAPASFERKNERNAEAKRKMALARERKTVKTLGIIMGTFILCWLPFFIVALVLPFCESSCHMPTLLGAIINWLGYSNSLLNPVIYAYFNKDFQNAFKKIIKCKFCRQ

5-HT7 = target: T3, 5-HT7 (Homo sapiens, UniProt P34969); assay: Radioligand binding, 5-HT receptor family: 5-HT7 ([3H]LSD); conditions: CHO-K1 human recombinant receptor, [3H]LSD 3 nM; read-out: Binding affinity, IC50 (nM), 5-HT7
T3 construct: purchased Euroscreen/BioSignal Packard Inc
Protocol: Radioligand bindings were performed according to the test method provided by the supplier of receptor membrane (Euroscreen/BioSignal Packard Inc.). The detailed assay conditions and the results were shown in the following Table 3 and Table 4, respectively.

5-HT2a = target: T4, 5-HT2a (Homo sapiens, UniProt P28223); assay: Radioligand binding, 5-HT receptor family: 5-HT2a ([3H]Ketanserin); conditions: CHO-K1 human recombinant receptor, [3H]Ketanserin 1 nM; read-out: Binding affinity, IC50 (nM), 5-HT2a
T4 construct: purchased Euroscreen/BioSignal Packard Inc

hD2L receptor = target: T5, hD2L receptor (Homo sapiens, UniProt P14416); assay: Dopamine receptor family binding: D2 ([3H]spiperone); conditions: [3H]spiperone 1 nM; read-out: Binding affinity, IC50 (nM), D2
T5 construct: purchased BioSignal Packard Inc., Montreal, Canada
Protocol: (§1) 2-2: Binding Assays of Dopamine Receptor Family
(§2) The radioligands used were [^3H]spiperone (for hD2L and hD3 receptors, 1 nM) and [^3H] YM-09151-2 (for hD4.2 receptor, 0.06 nM). Radioligand bindings were performed by the protocols provided by the supplier of receptor membranes (BioSignal Packard Inc., Montreal, Canada). Briefly, the buffer used in D2 or D3 receptor binding assay was 50 mM Tris-HCl (pH 7.4), 10 mM MgCl2, 1 mM EDTA, or 50 mM Tris-HCl (pH 7.4), 5 mM MgCl2 5 mM EDTA, 5 mM KCl, 1.5 mM CaCl2, 120 mM NaCl, respectively. In [^3H] YM-09151-2 receptor binding assays, the buffer containing 50 mM Tris-HCl (pH 7.4), 5 mM MgCl2, 5 mM EDTA, 5 mM KCl and 1.5 mM CaCl2 was used. […] Competition binding studies were carried out with 7-8 concentrations of the test compound run in duplicate tubes, and isotherms from three assays were calculated by computerized nonlinear regression analysis (GraphPad Prism Program, San Diego, […]) to yield median inhibitory concentration (IC50) values.

[1] = target: Human serotonin 5-HT6 receptor (Homo sapiens, UniProt P50406); assay: [3H]LSD binding assay on cloned 5-HT6 receptor; conditions: IC50 (nM)
hD4.2 receptor = target: T6, hD4.2 receptor (Homo sapiens, UniProt P21917, DEL265-296); assay: Dopamine receptor family binding: D4 ([3H]YM-09151-2); conditions: [3H]YM-09151-2 0.06 nM; read-out: Binding affinity, IC50 (nM), D4
T6 construct: purchased BioSignal Packard Inc., Montreal, Canada
T6 sequence (P21917 with tags, fused parts or gaps DEL265-296): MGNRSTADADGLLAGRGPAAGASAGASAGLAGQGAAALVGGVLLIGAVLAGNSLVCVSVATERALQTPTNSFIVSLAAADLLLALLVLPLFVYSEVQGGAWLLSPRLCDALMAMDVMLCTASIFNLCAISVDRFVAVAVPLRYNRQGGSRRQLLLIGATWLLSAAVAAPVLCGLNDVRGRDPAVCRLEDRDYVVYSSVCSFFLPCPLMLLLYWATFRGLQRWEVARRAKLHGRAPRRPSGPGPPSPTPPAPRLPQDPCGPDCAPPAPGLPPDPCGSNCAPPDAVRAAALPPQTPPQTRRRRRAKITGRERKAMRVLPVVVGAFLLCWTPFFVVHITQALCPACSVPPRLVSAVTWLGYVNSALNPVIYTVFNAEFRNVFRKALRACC
Protocol: as §1, §2

5-HT2c = target: T7, 5-HT2c (Homo sapiens, UniProt P28335); assay: Radioligand binding, 5-HT receptor family: 5-HT2c ([3H]Mesulergine); conditions: CHO-K1 human recombinant receptor, [3H]Mesulergine 1 nM; read-out: Binding affinity, IC50 (nM), 5-HT2c
T7 construct: purchased Euroscreen/BioSignal Packard Inc
T7 sequence (P28335 33-458): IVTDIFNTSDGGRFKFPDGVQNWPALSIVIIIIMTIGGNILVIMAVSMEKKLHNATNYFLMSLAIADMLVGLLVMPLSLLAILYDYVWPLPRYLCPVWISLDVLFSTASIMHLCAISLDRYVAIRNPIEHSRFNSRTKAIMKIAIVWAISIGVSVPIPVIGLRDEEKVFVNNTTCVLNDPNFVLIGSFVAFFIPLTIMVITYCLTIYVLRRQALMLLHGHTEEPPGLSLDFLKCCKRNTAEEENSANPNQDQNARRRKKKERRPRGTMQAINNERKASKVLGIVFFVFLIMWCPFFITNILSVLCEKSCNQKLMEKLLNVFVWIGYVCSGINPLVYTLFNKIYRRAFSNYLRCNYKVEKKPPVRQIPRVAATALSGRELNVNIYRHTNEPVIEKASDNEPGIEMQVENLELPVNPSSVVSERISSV

D1 = D1 (Homo sapiens, UniProt P21728); assay: Dopamine receptor family binding: D1; conditions: read-out: Binding affinity, IC50 (nM), D1
[2] = Binding affinity, 5-HT6, Table 4
[3] = binding affinity to the 5-HT6 receptor, Table 2, 1.87 nM [3H]LSD, cloned human receptor membranes from Sf21 cells, 37° C. 60 min

T5 sequence (P14416 whole entry): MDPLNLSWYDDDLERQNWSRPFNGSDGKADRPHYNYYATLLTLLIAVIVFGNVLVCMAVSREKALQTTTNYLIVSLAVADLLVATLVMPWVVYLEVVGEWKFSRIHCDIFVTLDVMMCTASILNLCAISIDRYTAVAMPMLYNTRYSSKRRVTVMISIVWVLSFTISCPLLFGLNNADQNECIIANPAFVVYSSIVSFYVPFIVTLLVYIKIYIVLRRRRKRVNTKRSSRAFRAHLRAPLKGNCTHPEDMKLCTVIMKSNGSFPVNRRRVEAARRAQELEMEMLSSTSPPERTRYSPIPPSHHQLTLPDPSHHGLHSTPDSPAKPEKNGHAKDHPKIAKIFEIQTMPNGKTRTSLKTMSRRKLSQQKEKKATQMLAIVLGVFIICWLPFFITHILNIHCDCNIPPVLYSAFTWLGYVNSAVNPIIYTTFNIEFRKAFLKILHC
T4 sequence (P28223 whole entry): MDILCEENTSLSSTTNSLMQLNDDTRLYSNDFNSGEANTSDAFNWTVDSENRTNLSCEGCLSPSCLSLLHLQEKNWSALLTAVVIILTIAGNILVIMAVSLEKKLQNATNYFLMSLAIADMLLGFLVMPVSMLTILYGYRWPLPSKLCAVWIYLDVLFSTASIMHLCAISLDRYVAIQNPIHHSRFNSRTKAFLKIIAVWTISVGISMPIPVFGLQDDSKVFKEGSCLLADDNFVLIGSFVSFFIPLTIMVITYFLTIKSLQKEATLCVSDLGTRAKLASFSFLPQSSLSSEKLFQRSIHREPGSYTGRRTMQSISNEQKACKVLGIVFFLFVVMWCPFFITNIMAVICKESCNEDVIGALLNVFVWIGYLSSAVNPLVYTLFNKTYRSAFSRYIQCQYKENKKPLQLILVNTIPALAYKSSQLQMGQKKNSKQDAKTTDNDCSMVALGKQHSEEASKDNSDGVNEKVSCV
T1 sequence (P35462 whole entry): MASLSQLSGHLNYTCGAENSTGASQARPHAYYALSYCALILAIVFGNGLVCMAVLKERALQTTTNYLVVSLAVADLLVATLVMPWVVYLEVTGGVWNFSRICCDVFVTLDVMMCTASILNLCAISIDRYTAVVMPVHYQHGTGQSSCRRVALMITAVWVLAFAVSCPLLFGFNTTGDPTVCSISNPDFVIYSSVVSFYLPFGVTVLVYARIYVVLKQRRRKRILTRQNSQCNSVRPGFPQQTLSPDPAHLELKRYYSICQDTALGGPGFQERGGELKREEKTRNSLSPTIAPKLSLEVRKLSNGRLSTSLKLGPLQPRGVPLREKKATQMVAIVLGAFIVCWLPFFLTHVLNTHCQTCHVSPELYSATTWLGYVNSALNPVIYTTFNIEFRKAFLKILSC
Chain of Human serotonin 5-HT6 receptor (P50406 whole entry): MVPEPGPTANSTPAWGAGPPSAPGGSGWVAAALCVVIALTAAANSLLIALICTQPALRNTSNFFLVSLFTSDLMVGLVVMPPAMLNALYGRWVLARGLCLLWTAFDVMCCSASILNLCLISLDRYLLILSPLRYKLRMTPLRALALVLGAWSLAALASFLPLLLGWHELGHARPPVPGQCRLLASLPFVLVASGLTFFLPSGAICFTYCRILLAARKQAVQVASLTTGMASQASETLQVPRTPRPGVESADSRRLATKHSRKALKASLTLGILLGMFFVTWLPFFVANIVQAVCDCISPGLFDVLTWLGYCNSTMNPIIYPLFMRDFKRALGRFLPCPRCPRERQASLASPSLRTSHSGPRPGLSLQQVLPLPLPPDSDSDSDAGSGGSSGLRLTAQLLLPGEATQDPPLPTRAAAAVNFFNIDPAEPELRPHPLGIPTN
T3 sequence (P34969 whole entry): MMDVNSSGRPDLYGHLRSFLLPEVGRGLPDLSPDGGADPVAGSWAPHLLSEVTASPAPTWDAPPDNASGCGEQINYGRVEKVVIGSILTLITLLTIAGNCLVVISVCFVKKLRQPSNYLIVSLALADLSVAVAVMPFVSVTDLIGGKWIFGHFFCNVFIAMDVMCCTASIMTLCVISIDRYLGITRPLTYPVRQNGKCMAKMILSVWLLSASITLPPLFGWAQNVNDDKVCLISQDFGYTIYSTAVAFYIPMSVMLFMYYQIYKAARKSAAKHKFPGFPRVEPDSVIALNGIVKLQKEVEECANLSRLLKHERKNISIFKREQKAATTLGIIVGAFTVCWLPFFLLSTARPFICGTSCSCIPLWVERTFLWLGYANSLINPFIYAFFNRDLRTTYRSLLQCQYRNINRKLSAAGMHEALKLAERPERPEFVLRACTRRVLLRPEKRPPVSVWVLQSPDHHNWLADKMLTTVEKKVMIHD
Chain of D1 (P21728 whole entry): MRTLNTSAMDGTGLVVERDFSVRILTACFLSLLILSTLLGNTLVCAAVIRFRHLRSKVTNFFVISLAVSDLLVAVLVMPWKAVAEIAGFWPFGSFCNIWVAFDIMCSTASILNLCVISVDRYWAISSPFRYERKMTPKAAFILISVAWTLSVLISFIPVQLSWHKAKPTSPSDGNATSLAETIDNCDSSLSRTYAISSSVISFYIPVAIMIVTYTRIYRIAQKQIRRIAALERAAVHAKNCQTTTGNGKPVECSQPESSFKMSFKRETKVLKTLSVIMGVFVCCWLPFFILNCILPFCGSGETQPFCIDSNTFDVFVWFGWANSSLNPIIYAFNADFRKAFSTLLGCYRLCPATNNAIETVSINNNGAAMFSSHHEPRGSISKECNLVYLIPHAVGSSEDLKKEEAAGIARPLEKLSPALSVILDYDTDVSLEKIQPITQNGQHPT

CN1CCN(c2cc(Cl)cc3c2S(=O)(=O)N(Cc2ccccc2F)C(=O)N3Cc2ccccc2)CC1 [Example 2, 4-Benzyl-6-chloro-2-(2-fluoro-benzyl)-8-(4-methyl-piperazin-1-yl)-1,1-dioxo-1,4-dihydro-2H-1λ^6-benzo[1,2,4]thiadiazin-3-one]
IC50 (hD3 receptor): 390 nM | IC50 (5-HT1a): 2300 nM | IC50 (5-HT7): > 10000 nM | melting point: 118 to 120 °C | IC50 (5-HT2a): 335 nM | IC50 (hD2L receptor): > 10000 nM | IC50 [1, 2]: 1.9 nM | IC50 [1, 3]: 1.9 nM | IC50 (hD4.2 receptor): > 10000 nM | IC50 (5-HT2c): 578 nM

CN1CCN(c2cc(Cl)cc3c2S(=O)(=O)N(Cc2cccc(F)c2)C(=O)N3Cc2ccccc2)CC1 [Example 3, 4-Benzyl-6-chloro-2-(3-fluoro-benzyl)-8-(4-methyl-piperazin-1-yl)-1,1-dioxo-1,4-dihydro-2H-1λ^6-benzo[1,2,4]thiadiazin-3-one]
IC50 (hD3 receptor): 537 nM | IC50 (5-HT1a): 5980 nM | IC50 (5-HT7): > 10000 nM | melting point: 85 to 87 °C | IC50 (5-HT2a): 846 nM | IC50 (hD2L receptor): > 10000 nM | IC50 [1, 2]: 0.7 nM | IC50 [1, 3]: 0.7 nM | IC50 (hD4.2 receptor): > 10000 nM | IC50 (5-HT2c): 2190 nM

CN1CCN(c2cc(Cl)cc3c2S(=O)(=O)N(Cc2ccccc2Cl)C(=O)N3Cc2ccccc2)CC1 [Example 5, 4-Benzyl-6-chloro-2-(2-chloro-benzyl)-8-(4-methyl-piperazin-1-yl)-1,1-dioxo-1,4-dihydro-2H-1λ^6-benzo[1,2,4]thiadiazin-3-one]
IC50 (hD3 receptor): 93 nM | IC50 (5-HT1a): 3010 nM | IC50 (5-HT7): > 10000 nM | melting point: 132 to 133 °C | IC50 (5-HT2a): 396 nM | IC50 (hD2L receptor): 5090 nM | IC50 [1, 2]: 1.3 nM | IC50 [1, 3]: 1.3 nM | IC50 (hD4.2 receptor): > 10000 nM | IC50 (5-HT2c): 240 nM

CN1CCN(c2cc(Cl)cc3c2S(=O)(=O)N(Cc2ccc(Cl)cc2)C(=O)N3Cc2ccccc2)CC1 [Example 7, 4-Benzyl-6-chloro-2-(4-chloro-benzyl)-8-(4-methyl-piperazin-1-yl)-1,1-dioxo-1,4-dihydro-2H-1λ^6-benzo[1,2,4]thiadiazin-3-one]
IC50 (hD3 receptor): 555 nM | IC50 (5-HT1a): 3910 nM | IC50 (5-HT7): > 10000 nM | melting point: 99 to 100 °C | IC50 (5-HT2a): 488 nM | IC50 (hD2L receptor): > 10000 nM | IC50 [1, 2]: 2.3 nM | IC50 [1, 3]: 2.3 nM | IC50 (hD4.2 receptor): > 10000 nM | IC50 (5-HT2c): 1540 nM

COc1ccc(CN2C(=O)N(Cc3ccccc3)c3cc(Cl)cc(N4CCN(C)CC4)c3S2(=O)=O)cc1 [Example 18, 4-Benzyl-6-chloro-2-(4-methoxy-benzyl)-8-(4-methyl-piperazin-1-yl)-1,1-dioxo-1,4-dihydro-2H-1λ^6-benzo[1,2,4]thiadiazin-3-one]
IC50 (hD3 receptor): 1220 nM | IC50 (5-HT1a): 3420 nM | IC50 (5-HT7): > 10000 nM | IC50 (5-HT2a): 563 nM | IC50 (hD2L receptor): 6580 nM | IC50 [1, 2]: 3.6 nM | IC50 [1, 3]: 3.6 nM | IC50 (hD4.2 receptor): > 10000 nM | IC50 (D1): > 10000 nM | IC50 (5-HT2c): 990 nM

Reference: patent US20100035866A1, “NOVEL SUBSTITUTED-1, 1-DIOXO-BENZO[1,2,4]THIADIAZIN-3ONES, PREPARATION METHOD THEREOF, AND PHARMACEUTICAL COMPOSITION CONTAINING THE SAME” (KOREA RESEARCH INSTITUTE OF CHEMICAL TECHNOLOGY, priority 2006, published 2010)
